{
  "source": "patent US20020099086A1",
  "about": "“Use of extracts from aristolochia in the treatment of AIDS” (PROTEOME SCIENCES PLC, priority 1998, published 2002)",
  "key": {"[1]": {"tested_on": "dopamine receptors", "assay": "Interaction with neurotransmitter receptors", "assay_type": "binding"}, "[2]": {"tested_on": "serotonin receptors", "assay": "Interaction with neurotransmitter receptors", "assay_type": "binding"}, "[3]": {"tested_on": "remaining receptors of twenty seven common receptor types", "assay": "Interaction with neurotransmitter receptors", "assay_type": "binding", "conditions": "twenty seven common receptor types tested"}, "[4]": {"tested_on": "Parkinsonism", "conditions": "disclosed in U.S. Pat. No. 4782077; cited from earlier work"}, "[5]": {"molecular_target": "opiate mu receptor (Homo sapiens, UniProt P35372)", "sequence (P35372 whole entry)": "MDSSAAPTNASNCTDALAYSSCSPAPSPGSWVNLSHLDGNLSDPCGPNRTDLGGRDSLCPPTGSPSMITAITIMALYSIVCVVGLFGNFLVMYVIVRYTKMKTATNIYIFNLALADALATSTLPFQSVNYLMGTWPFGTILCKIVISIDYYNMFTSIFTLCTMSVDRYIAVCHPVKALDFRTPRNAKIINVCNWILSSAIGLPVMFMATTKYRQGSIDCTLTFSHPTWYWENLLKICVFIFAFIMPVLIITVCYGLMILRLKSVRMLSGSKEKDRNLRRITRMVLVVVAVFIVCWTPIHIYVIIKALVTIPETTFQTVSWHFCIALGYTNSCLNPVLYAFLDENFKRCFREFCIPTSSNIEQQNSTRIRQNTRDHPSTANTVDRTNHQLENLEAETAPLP", "assay": "Interaction with neurotransmitter receptors", "assay_type": "binding"}, "[6]": {"tested_on": "GABA receptors", "assay": "Interaction with neurotransmitter receptors", "assay_type": "binding"}},
  "data": [
    {"substance": "Taliscanine [Taliscanine (5)]", "values": [
      {"measurement": "activity at the dopamine receptors", "setting": "[1]", "value": "negligible activity"},
      {"measurement": "activity at the serotonin receptors", "setting": "[2]", "value": "negligible activity"},
      {"measurement": "levels of inhibition with the remaining receptors", "setting": "[3]", "value": "very poor levels of inhibition"},
      {"measurement": "symptoms of Parkinsonism and related neurological disorders", "setting": "[4]", "value": "alleviates the symptoms of Parkinsonism and related neurological disorders"},
      {"measurement": "inhibition, opiate mu receptor", "setting": "[5]", "value": 50, "unit": "%"},
      {"measurement": "activity at the GABA receptors", "setting": "[6]", "value": "negligible activity"}
    ]}
  ]
}
